From article PMC5103216, “Novel Agonist Bioisosteres and Common Structure-Activity Relationships for The Orphan G Protein-Coupled Receptor GPR139” (Scientific Reports, 2016)
Several values for one entry are separate records, joined by “and”; a condition that tells them apart may be missing. Identical values can stand only once. Like-named read-outs stand apart in the source and are kept apart here.

Experiments:
M1 receptor [1] = target: T1, M1 receptor (Homo sapiens, UniProt P11229); assay: IP-One HTRF assay in CHO-M1 (control); type: cell-based
T1 construct: host or cells: CHO-k1
T1 sequence (P11229 1-460): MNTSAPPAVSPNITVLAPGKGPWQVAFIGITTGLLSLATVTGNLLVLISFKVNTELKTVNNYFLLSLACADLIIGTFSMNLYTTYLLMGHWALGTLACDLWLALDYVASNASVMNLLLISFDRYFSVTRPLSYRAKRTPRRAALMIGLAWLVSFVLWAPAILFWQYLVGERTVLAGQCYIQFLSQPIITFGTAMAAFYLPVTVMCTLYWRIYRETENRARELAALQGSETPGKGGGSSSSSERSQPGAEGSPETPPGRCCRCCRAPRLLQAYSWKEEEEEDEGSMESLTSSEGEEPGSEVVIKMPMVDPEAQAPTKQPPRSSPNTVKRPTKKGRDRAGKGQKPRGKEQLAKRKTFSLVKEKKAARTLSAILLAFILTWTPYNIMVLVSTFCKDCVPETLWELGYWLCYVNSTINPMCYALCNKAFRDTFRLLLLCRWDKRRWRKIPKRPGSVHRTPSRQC
Description: (§1) Figure 3 IP-One HTRF® assay measuring Gq activation. Concentration-response curves of 1a, 7c (racemic), L-Trp, L-Phe, DL43, DL126, DL24, DL22, DL132 and DL130 on (A) CHO-139 and (B) CHO-M1 in the IP-One assay (final conc of LiCl = 20 mM). The dotted line represent the [IP1] response from (A) 10 μM 1a and (B) 1 μM carbachol, which is an agonist for the muscarinic acethylcholine receptor M1 that activates the Gq coupled pathway. The graphs are means ± SEM based on three independent experiments performed in triplicates.
(§2) The IP-One assay was performed as described in the work by Thomsen et al.[28], with few modifications. Breifly, CHO-139 and CHO-M1 were detached and re-suspended to a concentration of 10 million cells/mL. 5 μL 2x concentrated compound (+40 mM LiCl) and 5 μL cell suspension (50,000 cells/well) was mixed. The plate was sealed and incubated at 37 °C for 1 hour. Next, 10 μL detection reagents (lysis buffer containing 2.5% Eu^3+-anti-IP1 antibody and 2.5% IP1-d2) was added and the plate was incubated for 1 hour at room temperature. The plate was read on an Envision (PerkinElmer, Waltham, MA, USA). The time resolved-fluorescence resonance energy transfer (TR-FRET) 665 nm/615 nm ratio, which is inversely proportional to the inositol monophosphate (IP1) accumulation, was used to determine the concentration of the IP1 response.

GPR139 [2] = target: T2, GPR139 (Homo sapiens, UniProt Q6DWJ6); assay: cAMP dynamic 2 assay measuring Gi activation (forskolin) in CHO-139; type: cell-based; conditions: for Inhibition of the cAMP response induced by 5 μM forskolin (Gi), in words: CHO-139
T2 sequence (Q6DWJ6 1-353): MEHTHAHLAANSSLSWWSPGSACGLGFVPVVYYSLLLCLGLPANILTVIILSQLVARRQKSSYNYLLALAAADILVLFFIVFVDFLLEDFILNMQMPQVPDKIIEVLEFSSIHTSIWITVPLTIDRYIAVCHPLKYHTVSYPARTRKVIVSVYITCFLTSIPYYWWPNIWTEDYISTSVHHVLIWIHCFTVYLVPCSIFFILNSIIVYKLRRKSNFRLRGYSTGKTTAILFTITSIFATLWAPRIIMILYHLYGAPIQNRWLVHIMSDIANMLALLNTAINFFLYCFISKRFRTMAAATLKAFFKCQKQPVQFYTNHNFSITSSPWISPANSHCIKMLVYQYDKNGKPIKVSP
Description: (§3) The cAMP assay was performed as described in the work by Thomsen et al.[28] with few modifications. Breifly, CHO-139 and CHO-M1 was detached and resuspended to a concentration of 1 million cells/mL. 5 μL 2x concentrated compound (for Gs: +100 μM IBMX and for Gi: +100 μM IBMX +10 μM forskolin (Fsk)) and 5 μL cell suspension (5,000 cells/well) was mixed. The plate was sealed and incubated at room temperature for 30 min. Next, 10 μL detection reagents (lysis buffer containing 2.5% Eu^3+-anti-cAMP antibody and 2.5% cAMP-d2) was added and the plate was incubated for 1 hour at room temperature. The plate was read on an Envision (PerkinElmer, Waltham, MA, USA). The TR-FRET 665 nm/615 nm ratio, which is inversely proportional with the cAMP production, was used to determination the concentration of the cAMP response. […]
(§4) Supplementary Figure 2. cAMP dynamic 2 assay measuring Gi activation. 5,000 cells/well of CHO-139 (pink bars) or CHO-M1 (blue bars) cells are
(§5) incubated with the indicated compounds for 30 min at room temperature in the presence of 50 µM IBMX and 5 uM Fsk (expect “buffer (-Fsk) where only 50
(§6) µM IBMX is present). The straight line indicate the level of cAMP upon activation with 5 uM Fsk, and the grey area ±10% of the response. The responses are
(§7) one representative out of at two independent experiments performed in triplicates. Data points are means ± SD.

GPR139 [3] = target: T2, GPR139; assay: cAMP dynamic 2 assay measuring Gs activation in CHO-139; type: cell-based
Description: as §3
(§8) Supplementary Figure 1. cAMP dynamic 2 assay measuring Gs activation. 5,000 cells/well of CHO-139 (pink bars) or CHO-M1 (blue bars) cells are
(§9) incubated with the indicated compounds for 30 min at room temperature in the presence of 50 µM IBMX. 5 µM and 10 µM forskolin (Fsk) serves as positive
(§10) controls. The responses are one representative out of at two independent experiments performed in triplicates. Data points are means ± SD. […]
(§11) Data points are means ± SD.

M1 receptor [4] = target: T1, M1 receptor; assay: cAMP dynamic 2 assay measuring Gs activation in CHO-M1 (control); type: cell-based
Description: as §3, §8, §9, §10, §11

GPR139 [5] = target: T2, GPR139; design: method as in ref 13, 14 (Dvorak et al.); conditions: relative to L-Trp; 14 (Dvorak et al.); cited from earlier work
[6] = in vivo; cited from earlier work
[7] = not told; cited from earlier work
GPR139 [8] = target: T2, GPR139; design: method as in ref 11 (Shi et al.); conditions: ref 11 (Shi et al.), cited from earlier work; for EC50: GPR139 agonist potency
GPR139 [9] = target: T2, GPR139; assay: IP-One HTRF assay measuring Gq activation in CHO-139; type: cell-based; conditions: for EC50: IP-One HTRF assay, CHO-139, 20 mM LiCl
Description: as §1, §2

GPR139 [10] = target: T2, GPR139; assay: GPR139 agonist potency, data from Shi et al. (Lundbeck series); type: cell-based
[11] = in vivo; cited from earlier work; remark: listed apart in the source
GPR139 [12] = target: T2, GPR139; assay: GPR139 agonist potency, data from Dvorak et al. (Janssen R&D series); type: cell-based
GPR139 [13] = target: T2, GPR139; design: method as in PMID 24826842; conditions: GPR139 activation; cited from earlier work
GPR139 [14] = target: T2, GPR139; design: method as in ref 6, 13 (Liu et al.); conditions: [35S]GTPγS binding, membranes from COS7 cells; 13 (Liu et al.); cited from earlier work
GPR139 [15] = target: T2, GPR139; design: method as in ref 6, 13 (Liu et al.); conditions: calcium mobilization in HEK293; 13 (Liu et al.); cited from earlier work
GPR139 [16] = target: T2, GPR139; design: method as in ref 6, 13 (Liu et al.); conditions: concentration-dependent calcium response in HEK293 cells; 13 (Liu et al.); cited from earlier work
M1 receptor [17] = target: T1, M1 receptor; assay: cAMP dynamic 2 assay measuring Gi activation (forskolin) in CHO-M1 (control); type: cell-based; conditions: CHO-M1, high concentrations; unspecific response
Description: as §3, §4, §5, §6, §7

GPR139 [18] = target: T2, GPR139; design: method as in ref 15 (Hitchcock et al.); conditions: ref 15 (Hitchcock et al.); cited from earlier work

Structure (SMILES)	fold reduction of potency vs. 1a (GPR139 [10])	IP1 response in CHO-M1 cells (M1 receptor [1])	Inhibition of the cAMP response induced by 5 μM forskolin (Gi), in words (GPR139 [2])	Gs response (cAMP) (GPR139 [3])	Gs response (cAMP) (M1 receptor [4])	Emax (GPR139 [8])	EC50 (GPR139 [9])	EC50 (GPR139 [8])	further results
C[C@H](NC(=O)CNC(=O)c1cccc(Cl)c1)c1ccccc1 (racemic) [7c]	–	no response is seen in CHO-M1 cells	none of the tested compounds were able to inhibit the cAMP response	None of the tested compounds induced Gs response	None of the tested compounds induced Gs response	–	–	–	Emax (GPR139 [5]): 138%; brain to plasma ratio [6]: 1.2; efflux potential [7]: no efflux potential
COc1cc(OC)cc(C(=O)NNC(=O)Nc2cccc3ccccc23)c1 [1a]	–	no response is seen in CHO-M1 cells	none of the tested compounds were able to inhibit the cAMP response	None of the tested compounds induced Gs response	None of the tested compounds induced Gs response	100%	1.05 µM	–	–
COc1ccccc1C(=O)NNC(=O)Nc1cccc2ccccc12 [1c]	~ 16 fold	–	–	–	–	79%	–	0.62 µM	–
C[C@H](NC(=O)CNC(=O)c1ccccc1Cl)c1ccccc1 [7b]	–	–	–	–	–	–	–	–	fold reduction of potency vs. 7c (GPR139 [12]): ~ 3 fold; Emax (GPR139 [5]): 120%
N[C@@H](Cc1ccccc1)C(=O)O [L-Phe, L-Phenylalanine]	–	no response is seen in CHO-M1 cells	none of the tested compounds were able to inhibit the cAMP response	None of the tested compounds induced Gs response	None of the tested compounds induced Gs response	–	4450 µM	–	EC50 (GPR139 [13]): 320 µM; EC50 (GPR139 [14]): 31 µM; EC50 (GPR139 [15]): 411 µM; EC50 (GPR139 [16]): 60 µM
N[C@@H](Cc1c[nH]c2ccccc12)C(=O)O [L-Trp, L-Tryptophan]	–	no response is seen in CHO-M1 cells	–	None of the tested compounds induced Gs response	None of the tested compounds induced Gs response	–	~8500 µM	–	Inhibition of the 5 μM forskolin induced cAMP response (M1 receptor [17]): more than 10%; EC50 (GPR139 [13]): 220 µM; agonist type (GPR139 [9]; IP-One assay, compared to compound 1a): super-agonists; EC50 (GPR139 [14]): 26 µM; Inhibition of the 5 μM forskolin induced cAMP response (GPR139 [2]; CHO-139, high concentrations): more than 10%; EC50 (GPR139 [15]): 287 µM; EC50 (GPR139 [16]): 49 µM
COc1ccc(C(C)NC(=O)Cn2nnc3cc(C)ccc3c2=O)cc1 (centres unmarked) [compound 35]	–	–	–	–	–	–	–	–	EC50 (GPR139 [18]): 0.042 µM
COc1ccc(C(C)NC(=O)Cn2nnc3cc(OC)ccc3c2=O)cc1 (centres unmarked) [compound 37]	–	–	–	–	–	–	–	–	EC50 (GPR139 [18]): 0.037 µM

Continued, in another order:

fold reduction of potency vs. 1a (GPR139 [10])	Structure (SMILES)	IP1 response in CHO-M1 cells (M1 receptor [1])	Inhibition of the cAMP response induced by 5 μM forskolin (Gi), in words (GPR139 [2])	Gs response (cAMP) (GPR139 [3])	Gs response (cAMP) (M1 receptor [4])	Emax (GPR139 [8])	EC50 (GPR139 [9])	EC50 (GPR139 [8])	further results
~ 26 fold	COc1cccc(C(=O)NNC(=O)Nc2cccc3ccccc23)c1 [1f]	–	–	–	–	100%	–	1 µM	–
2 fold and ~ 2.4 fold	COc1cc(OC)cc(C(=O)NNC(=O)Cc2cccc3ccccc23)c1 [1s]	–	–	–	–	95%	–	0.088 µM	brain exposure [11]: failed to increase brain exposure due to low plasma levels
